Tests used:
[1] = system: NCI-H146 cells (human small-cell lung cancer cell lines); assay: Cell-growth inhibition test: NCI-H146 cells; type: cell-based; conditions: Homo sapiens, NCI-H146, read-out: Cell-Growth Inhibition Test: NCI-H146 Cells IC50 (nM)
In short: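 NCI-H146 small-cell lung cancer cells were cultured with compound or DMSO for 10 days at 37°C, 5% CO2. Viability read by CellTiter-Glo luminescence; growth rate (%) = treated/DMSO luminescence × 100.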

[2] = system: NCI-H1417 cells (human small-cell lung cancer cell lines); assay: cells; conditions: NCI-H1417, read-out: Cell-Growth Inhibition Test: NCI-H1417 Cells IC50 (nM);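 further: growth of NCI-H1417 cells over 10 days at 37 °C, read as viable-cell luminescence by CellTiter-Glo 2.0, expressed as % of DMSO-only control wells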
Experimental: Under the following conditions, an in vitro cell-growth inhibition test was performed with respect to HEL cells (human acute myelocytic leukemia cell lines), NCI-H1417 cells (human small-cell lung cancer cell lines), and NCI-H146 cells (human small-cell lung cancer cell lines).
The cells with the compound of the present invention or with dimethylsulfoxide alone were cultured at 37° C. in a 5% carbon-dioxide-containing incubator for 5 days (HEL cells) or 10 days (NCI-H1417 cells and NCI-H146 cells). After culture, the plate was allowed to stand at room temperature for 30 minutes, and 100 μL of the supernatant was removed from each well to leave 100 μL of the cell culture solution. To each well containing the remaining 100 μL of the cell culture solution, the same amount of CellTiter-Glo 2.0 Assay (Promega, Cat #: G9242) was added. The microplate was shaken with a plate mixer for 1 minute and then allowed to stand in a dark place for 10 minutes. Thereafter, the luminescence intensity of viable cells in each well was measured using a microplate reader (PerkinElmer, EnSpire). […] Cell growth rate (%)=T/C×100 T: The luminescence intensity in a well to which the compound of the present invention was added (count per second) C: The luminescence intensity in a well to which dimethylsulfoxide alone was added (count per second)

[3] = system: HEL cells (human acute myelocytic leukemia cell lines); assay: cells; conditions: read-out: Cell-Growth Inhibition Test: HEL Cells IC50 (nM);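 further: viable cell count by CellTiter-Glo 2.0 luminescence after 5 days of culture at 37 °C, growth expressed relative to DMSO-only wells as 100%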

CC(C)(O)Cn1nnc2cc(-c3ccc(C(=O)N4[C@@H]5CC[C@H]4C[C@@H](N)C5)cc3-c3ccc(C#N)c(F)c3)c(F)c(C(F)F)c21 [Example 250, 5′-((3-endo)-3-amino-8-azabicyclo[3.2.1]octane-8-carbonyl)-2′-(7-(difluoromethyl)-6-fluoro-1-(2-hydroxy-2-methylpropyl)-1H-benzo[d][1,2,3]triazol-5-yl)-3-fluoro-[1,1′-biphenyl]-4-carbonitrile]
IC50 [1]: 9.3 nM | IC50 [2]: 1.2 nM | IC50 [3]: 2.36 nM

CC(C)(O)Cn1nnc2cc(-c3ccc(C(=O)N4[C@@H]5CC[C@H]4C[C@@H](N)C5)cc3-c3ccc(C#N)c(F)c3)c(F)c(C#N)c21 [Example 251, 5-(5-((3-endo)-3-amino-8-azabicyclo[3.2.1]octane-8-carbonyl)-4′-cyano-3′-fluoro-[1,1′-biphenyl]-2-yl)-6-fluoro-1-(2-hydroxy-2-methylpropyl)-1H-benzo[d][1,2,3]triazole-7-carbonitrile]
IC50 [1]: 13.2 nM | IC50 [2]: 2.7 nM | IC50 [3]: 23.9 nM

N#Cc1ccc(-c2cc(C(=O)N3C4CCC3C(N)C4)ccc2-c2cc3nnn(CC4(O)CCC4)c3c(F)c2F)cc1F [Example 254, 5′-((1S,2S,4R)-rel-2-amino-7-azabicyclo[2.2.1]heptane-7-carbonyl)-2′-(6,7-difluoro-1-((1-hydroxycyclobutyl)methyl)-1H-benzo[d][1,2,3]triazol-5-yl)-3-fluoro-[1,1′-biphenyl]-4-carbonitrile-isomer-X]
IC50 [1]: 0.36 nM | IC50 [2]: 0.18 nM | IC50 [3]: 0.2 nM

N#Cc1ccc(-c2cc(C(=O)N3[C@@H]4CC[C@H]3C[C@@H](N)C4)ccc2-c2cc3nnn(CC4(O)CCC4)c3c(F)c2F)cc1F [Example 256, 5′-((3-endo)-3-amino-8-azabicyclo[3.2.1]octane-8-carbonyl)-2′-(6,7-difluoro-1-((1-hydroxycyclobutyl)methyl)-1H-benzo[d][1,2,3]triazol-5-yl)-3-fluoro-[1,1′-biphenyl]-4-carbonitrile]
IC50 [1]: 2.54 nM | IC50 [2]: 0.94 nM | IC50 [3]: 1.31 nM

N#Cc1ccc(-c2cc(C(=O)N3[C@@H]4CC[C@H]3C[C@@H](N)C4)ccc2-c2cc3nnn(CC4(O)CCC4)c3c(Cl)c2F)cc1F [Example 259, 5′-((3-endo)-3-amino-8-azabicyclo[3.2.1]octane-8-carbonyl)-2′-(7-chloro-6-fluoro-1-((1-hydroxycyclobutyl)methyl)-1H-benzo[d][1,2,3]triazol-5-yl)-3-fluoro-[1,1′-biphenyl]-4-carbonitrile]
IC50 [1]: 2.08 nM | IC50 [2]: 0.46 nM | IC50 [3]: 0.58 nM

N#Cc1ccc(-c2cc(C(=O)N3C4CCC3C(N)C4)ccc2-c2cc3nnn(CC4(O)CCC4)c3c(C(F)F)c2F)cc1F [Example 260, 5′-((1S,2S,4R)-rel-2-amino-7-azabicyclo[2.2.1]heptane-7-carbonyl)-2′-(7-(difluoromethyl)-6-fluoro-1-((1-hydroxycyclobutyl)methyl)-1H-benzo[d][1,2,3]triazol-5-yl)-3-fluoro-[1,1′-biphenyl]-4-carbonitrile-isomer-X]
IC50 [1]: 0.48 nM | IC50 [2]: 0.13 nM | IC50 [3]: 0.13 nM

N#Cc1ccc(-c2cc(C(=O)N3C4CCC3C(N)C4)ccc2-c2cc3nnn(CC4(O)CCC4)c3c(C#N)c2F)cc1F [Example 264, 5-(5-((1S,2S,4R)-rel-2-amino-7-azabicyclo[2.2.1]heptane-7-carbonyl)-4′-cyano-3′-fluoro-[1,1′-biphenyl]-2-yl)-6-fluoro-1-((1-hydroxycyclobutyl)methyl)-1H-benzo[d][1,2,3]triazole-7-carbonitrile-isomer-X]
IC50 [1]: 0.96 nM | IC50 [2]: 0.3 nM | IC50 [3]: 0.84 nM

N#Cc1ccc(-c2cc(C(=O)N3[C@@H]4CC[C@H]3C[C@@H](N)C4)ccc2-c2cc3nnn(CC4(O)CCC4)c3c(C#N)c2F)cc1F [Example 266, 5-(5-((3-endo)-3-amino-8-azabicyclo[3.2.1]octane-8-carbonyl)-4′-cyano-3′-fluoro-[1,1′-biphenyl]-2-yl)-6-fluoro-1-((1-hydroxycyclobutyl)methyl)-1H-benzo[d][1,2,3]triazole-7-carbonitrile]
IC50 [1]: 17.5 nM | IC50 [2]: 1.85 nM | IC50 [3]: 4.63 nM

Source: patent US11479563B2, “Biphenyl compound or salt thereof” (TAIHO PHARMACEUTICAL CO., LTD., priority 2017, dated 2022)
